Experimental findings from ChEMBL document CHEMBL1136379, “Identification of potent and broad-spectrum antibiotics from SAR studies of a synthetic vancomycin analogue” (2003) are described below.

Common to all, as to format: functional
The subject of test [1] is Enterococcus faecium. As to the kind of experiment: Compound tested for Susceptibility of vancomycin-resistant Enterococcus faecium.
Test [2] relates to Enterococcus faecium. In words: Minimum inhibitory concentration against vancomycin-resistant Enterococcus faecium.
The test system of test [3] is Escherichia coli. In words: Compound tested for Susceptibility of Escherichia coli (efflux mutant).
Test [4] deals with Escherichia coli. As to the kind of experiment: Compound tested for Susceptibility of Escherichia coli.
Test [5] concerns Enterococcus faecalis. As to the kind of experiment: Compound tested for Susceptibility of Enterococcus faecalis.
Test [6] concerns Haemophilus influenzae. In words: Compound tested for Susceptibility of Haemophilus influenzae (efflux mutant).
For test [7], the system named is Haemophilus influenzae. As to the kind of experiment: Compound tested for Susceptibility of Haemophilus influenzae.
Test [8] relates to Klebsiella pneumoniae. As to the kind of experiment: Compound tested for Susceptibility of Klebsiella pneumoniae.
Test [9] concerns Moraxella catarrhalis. As to the kind of experiment: Compound tested for Susceptibility of Moraxella catarrhalis.
Test [10] deals with Pseudomonas aeruginosa. In words: Compound tested for Susceptibility of Pseudomonas aeruginosa.
In test [11] the test system is Streptococcus pyogenes. In words: Compound tested for Susceptibility of Streptococcus pyogenes.
The subject of test [12] is Staphylococcus aureus. As to the kind of experiment: Compound tested for Susceptibility of Methicillin-resistant Staphylococcus aureus […].
Test [13] deals with Staphylococcus aureus. As to the kind of experiment: Compound tested for Susceptibility of Staphylococcus aureus.
Test [14] deals with Staphylococcus epidermidis. In words: Compound tested for Susceptibility of Methicillin-resistant Staphylococcus epidermidis (MRSE).
Test [15] relates to Staphylococcus epidermidis. In words: Compound tested for Susceptibility of Staphylococcus epidermidis.
Test [16] has as its system Streptococcus pneumoniae. In words: Compound tested for Susceptibility of Streptococcus pneumoniae (Penicillin-intermediate).
For test [17], the system named is Streptococcus pneumoniae. As to the kind of experiment: Compound tested for Susceptibility of Streptococcus pneumoniae.
In test [18] the test system is Enterococcus faecium. As to the kind of experiment: Compound tested for Susceptibility of Enterococcus faecium.

Converted amounts (≈) assume the structure as drawn.

Turning to `CN[C@H](CC(C)C)C(=O)N[C@@H]1Cc2ccc(cc2)Oc2cc(ccc2O)C(C(=O)N[C@@H](CN)C(=O)N[C@@H](Cc2ccccc2)C(=O)N2Cc3[nH]c4ccccc4c3C[C@H]2C(N)=O)NC(=O)[C@H](CC(N)=O)NC1=O` (stereo not given in full), the figures for the MIC in [1] and in test [2] were 150 µg/mL (≈ 150 µM) and 300 µg/mL (≈ 300 µM), respectively.

Regarding `CC(=O)N[C@@H](CN)C(=O)N[C@@H](Cc1ccccc1)C(=O)N1Cc2[nH]c3ccccc3c2C[C@H]1C(N)=O`, the MIC came to 1200 µg/mL (≈ 2450 µM) in [1] and 600 µg/mL (≈ 1220 µM) in test [2].

Take `CN[C@H](CC(C)C)C(=O)N[C@@H](CN)C(=O)N[C@@H](Cc1ccccc1)C(=O)N1Cc2[nH]c3ccccc3c2C[C@H]1C(N)=O`: the results for the MIC in [1] and in test [2] were over 1200 µg/mL and 600 µg/mL (≈ 1040 µM), respectively.

Regarding `CC(=O)N[C@@H](CN)C(=O)N[C@@H](Cc1ccccc1)C(=O)N1Cc2[nH]c3ccccc3c2C[C@H]1C(=O)NCC(O)CNC(=O)[C@@H]1Cc2c([nH]c3ccccc23)CN1C(=O)[C@H](Cc1ccccc1)NC(=O)[C@H](CN)NC(C)=O`, the MIC turned out to be 18 µg/mL (≈ 17.4 µM) in [1] and 600 µg/mL (≈ 578 µM) in test [2].

As to `CNC(CC(C)C)C(=O)N[C@@H](CN)C(=O)N[C@@H](Cc1ccccc1)C(=O)N1Cc2[nH]c3ccccc3c2C[C@H]1C(=O)NCC(O)CNC(=O)[C@@H]1Cc2c([nH]c3ccccc23)CN1C(=O)[C@H](Cc1ccccc1)NC(=O)[C@H](CN)NC(=O)[C@@H](CC(C)C)NC` (stereo not given in full), the MIC is 16 µg/mL (≈ 13.3 µM) in test [3]; 18 µg/mL (≈ 14.9 µM) in test [1]; 32 µg/mL (≈ 26.5 µM) in test [4]; 600 µg/mL (≈ 497 µM) in [2]; 8 µg/mL (≈ 6.63 µM) in [5]; 16 µg/mL (≈ 13.3 µM) in [6]. In addition, the MIC in test [7] is 96 µg/mL (≈ 79.5 µM); in test [8], over 128 µg/mL; in [9], 8 µg/mL (≈ 6.63 µM); in test [10], 128 µg/mL (≈ 106 µM); in [11], 2 µg/mL (≈ 1.66 µM); in test [12], 32 µg/mL (≈ 26.5 µM). Moreover, the MIC turned out to be 16 µg/mL (≈ 13.3 µM) in test [13]; 8 µg/mL (≈ 6.63 µM) in test [14]; 24 µg/mL (≈ 19.9 µM) in test [15]; 8 µg/mL (≈ 6.63 µM) in [16]; 16 µg/mL (≈ 13.3 µM) in test [17]; 4 µg/mL (≈ 3.31 µM) in test [18].

As for `CN[C@H](CC(C)C)C(=O)N[C@@H]1Cc2ccc(cc2)Oc2cc(ccc2O)C(C(=O)N[C@@H](CN)C(=O)N[C@@H](Cc2ccccc2)C(=O)N2Cc3[nH]c4ccccc4c3C[C@H]2C(=O)NCCC(O)CCNC(=O)[C@@H]2Cc3c([nH]c4ccccc34)CN2C(=O)[C@H](Cc2ccccc2)NC(=O)[C@H](CN)NC(=O)C2NC(=O)[C@H](CC(N)=O)NC(=O)[C@H](NC(=O)[C@@H](CC(C)C)NC)Cc3ccc(cc3)Oc3cc2ccc3O)NC(=O)[C@H](CC(N)=O)NC1=O` (stereo not given in full), the values for the MIC in test [1] and in test [2] were 18 µg/mL (≈ 8.64 µM) and 600 µg/mL (≈ 288 µM), respectively.

In the case of `NC(=O)C[C@@H]1NC(=O)[C@H](NC(=O)OCC2c3ccccc3-c3ccccc32)Cc2ccc(cc2)Oc2c(O)ccc(CC(=O)O)c2NC1=O`, in test [2], the MIC stood at 300 µg/mL (≈ 451 µM).

Turning to `CN[C@@H](CC(C)C)C(=O)N[C@@H]1Cc2ccc(cc2)Oc2cc(ccc2O)C(C(=O)N[C@@H](CN)C(=O)N[C@@H](Cc2ccccc2)C(=O)N2Cc3[nH]c4ccccc4c3C[C@H]2C(=O)NCCCC(O)CCCNC(=O)[C@@H]2Cc3c([nH]c4ccccc34)CN2C(=O)[C@H](Cc2ccccc2)NC(=O)[C@H](CN)NC(=O)C2NC(=O)[C@H](CC(N)=O)NC(=O)[C@H](NC(=O)[C@@H](CC(C)C)NC)Cc3ccc(cc3)Oc3cc2ccc3O)NC(=O)[C@H](CC(N)=O)NC1=O` (stereo not given in full) [VANCOMYCIN ANALOGUE], the MIC in test [1] turned out to be 38 µg/mL (≈ 18 µM); in test [2], 600 µg/mL (≈ 284 µM).

Take `CN[C@H](CC(C)C)C(=O)N[C@@H]1Cc2ccc(cc2)Oc2cc(ccc2O)C(C(=O)N[C@@H](CN)C(=O)N[C@@H](Cc2ccccc2)C(=O)N2Cc3[nH]c4ccccc4c3C[C@H]2C(=O)NCC(O)CNC(=O)[C@@H]2Cc3c([nH]c4ccccc34)CN2C(=O)[C@H](Cc2ccccc2)NC(=O)[C@H](CN)NC(=O)C2NC(=O)[C@H](CC(N)=O)NC(=O)[C@H](NC(=O)[C@@H](CC(C)C)NC)Cc3ccc(cc3)Oc3cc2ccc3O)NC(=O)[C@H](CC(N)=O)NC1=O` (stereo not given in full) [VANCOMYCIN ANALOGUE]: the MIC amounted to 9 µg/mL (≈ 4.38 µM) in test [1] and 600 µg/mL (≈ 292 µM) in [2].

With `CN[C@H](CC(C)C)C(=O)N[C@H]1C(=O)N[C@@H](CC(N)=O)C(=O)N[C@H]2C(=O)N[C@H]3C(=O)N[C@H](C(=O)N[C@H](C(=O)O)c4cc(O)cc(O)c4-c4cc3ccc4O)[C@H](O)c3ccc(c(Cl)c3)Oc3cc2cc(c3O[C@@H]2O[C@H](CO)[C@@H](O)[C@H](O)[C@H]2O[C@H]2C[C@](C)(N)[C@H](O)[C@H](C)O2)Oc2ccc(cc2Cl)[C@H]1O` [VANCOMYCIN], the MIC in test [1] and in test [2] was 600 µg/mL (≈ 414 µM) in each case.
